# Data as given in patent US20060020021A1, “Use of compounds derived from 2,3-dehydronaringenin for the treatment of inflammatory processes and pharmaceutical composition containing said derivatives” (FURFURAL ESPANOL, S.A., priority 2004, published 2006).
# Assays:
# [1] = tested on: paw edema in mice induced by carragenin; experiment: Test of paw edema in mice induced by carragenin (paw volume); type: in vivo, male Swiss albino mice; conditions: 70 mg/kg intraperitoneally 1 h before intradermal carragenin; significant at 1 h (p<0.025), 5 h (p<0.005), 24 h (p<0.0005)
# Experimental: The anti-inflammatory capacity of the product of Formula (I), wherein R is a potassium cation, was tested: [drawing 3] in male Swiss albino mice of 8 to 10 weeks of age (38-44 g), from the Servicio de Animales de Laboratorio (Laboratory Animals Department) of the University of Murcia. The animals were maintained under standard conditions (temperature of 22±2° C., humidity 60±4% and light/dark cycle of 12 hours) with food and drink ad libitum. The animals were anesthetized with ether in the moment of inducing inflammation and during the measurements of the volume of the paw. Test of Paw Edema in Mice Induced by Carragenin
# The inflammation was caused by intradermal injection of 0.05 ml of 1% Lambda Carrageenan (Sigma-Aldrich, Madrid, Spain) in saline solution in the plantar pad of the right hind paw. The measurement of the edema was carried out with a digital calibrator (Proinsa, Vitoria, Spain), measuring the 3 largest diameters of the paw for the volume calculation. The measurements were carried out in triplicate. The volume of the paw was measured immediately before (0 hours) and at 1, 5 and 24 hours after causing inflammation. The compound of Formula (I) was dissolved in sterile saline solution and intraperitoneally administered (70 mg/kg) 1 h before causing inflammation. […] Groups of 10 animals were used. […]
# [2] = tested on: paw edema in mice induced by carragenin; experiment: Microscopic study and assessment of the injected plantar pad (edema, inflammatory infiltrate, degree 0-3); type: in vivo, male Swiss albino mice; conditions: treated group, 24 hours post-inoculation, 70 mg/kg i.p.
# Experimental: The plantar pad area injected was extirpated at 24 hours post-inoculation; fixed in 10% buffered neutral formaldehyde, included in paraffin by the standard method, sectioned at 3 μm and stained with hematoxilin-eosin for its optical study which was carried out by two observers. The presence of edema and polynuclear neutrophils and monocytes was measured, being assessed as 0 (absence), 1 (slight), 2 (moderate) and 3 (intense) (FIGS. 3 to 6b).
smiles,measurement,setting,value
"O=c1cc(-c2ccc(O)cc2)oc2cc(O)cc(O)c12 [2,3-DHNA, 2,3-dehydronaringenin]","Increases in the volume of inoculated paw, treated group vs control group",[1],lower in the treated group than in the control group
same,samples with moderate inflammation (degree 2),[2],13.3%
same,samples with neither edema nor inflammatory infiltrate (degree 0),[2],60%
same,samples with slight inflammation (degree 1),[2],26.65%
